Measurements taken from ChEMBL document CHEMBL1131369, “Isoxazolylthioamides as potential immunosuppressants a combinatorial chemistry approach” (Bioorg Med Chem Lett, 1998).

Columns and labels:
[1] = target: Dihydroorotate dehydrogenase (quinone), mitochondrial (Homo sapiens, UniProt Q02127); assay: Immunosuppressive activity expressed as ability to inhibit human recombinant dihydroorotate dehydrogenase (DHODH)
[2] = species on record: Mus musculus; assay: Compound was tested in vitro for immunosuppressive activity which was measured in the mouse mixed lymphocyte reaction; assay type: functional

Sequence of Dihydroorotate dehydrogenase (quinone), mitochondrial (Q02127 whole entry): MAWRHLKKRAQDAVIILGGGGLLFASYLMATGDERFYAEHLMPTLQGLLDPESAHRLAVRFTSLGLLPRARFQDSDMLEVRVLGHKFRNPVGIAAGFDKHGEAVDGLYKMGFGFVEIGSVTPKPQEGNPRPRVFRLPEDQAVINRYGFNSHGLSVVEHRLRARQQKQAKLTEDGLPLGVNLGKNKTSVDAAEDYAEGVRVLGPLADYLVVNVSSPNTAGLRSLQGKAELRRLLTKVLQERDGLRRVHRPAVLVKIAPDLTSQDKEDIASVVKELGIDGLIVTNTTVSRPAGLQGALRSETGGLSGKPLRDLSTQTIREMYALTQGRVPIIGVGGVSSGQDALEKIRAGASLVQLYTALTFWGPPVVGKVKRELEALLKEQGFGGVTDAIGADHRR

IC50 [1]	IC50 [2]	SMILES
> 50 µM		FC(F)(F)Oc1ccc(NC(=S)c2cnoc2C2CCCCC2)cc1
3 µM		CCc1oncc1/C(S)=N/c1ccc(C(F)(F)F)cc1
> 50 µM		CC(C)(C)c1oncc1/C(S)=N/c1ccc(C(F)(F)F)cc1
> 50 µM		CN(C)c1ccc(NC(=S)c2cnoc2C2CCCCC2)cc1
9.3 µM		N#Cc1ccc(NC(=S)c2cnoc2C2CC2)cc1
> 50 µM		CN(C)c1ccc(NC(=S)c2cnoc2C(C)(C)C)cc1
35 µM		Cc1oncc1C(=S)Nc1ccc(C#N)cc1
0.7 µM		CCc1oncc1/C(S)=N/c1ccc(OC(F)(F)F)cc1
> 50 µM		CCCCCCc1oncc1/C(S)=N/c1ccc(C(F)(F)F)cc1
> 50 µM		CN(C)c1ccc(NC(=S)c2cnoc2C2CC2)cc1
40.4 µM		CCc1oncc1/C(S)=N/c1ccc(N(C)C)cc1
> 50 µM		CC(C)(C)c1oncc1/C(S)=N/c1ccc(C#N)cc1
> 50 µM		CCCCCCc1oncc1/C(S)=N/c1ccc(OC(F)(F)F)cc1
> 50 µM	23 µM	Cc1oncc1C(=S)Nc1ccc(C(F)(F)F)cc1
> 50 µM		Cc1oncc1C(=S)Nc1ccc(N(C)C)cc1
7.2 µM		Cc1oncc1/C(S)=N/c1ccc(OC(F)(F)F)cc1
0.8 µM	11 µM	CC(=O)/C(C#N)=C(/S)Nc1ccc(C(F)(F)F)cc1
3.2 µM		FC(F)(F)c1ccc(NC(=S)c2cnoc2C2CC2)cc1
11 µM		CCc1oncc1C(=S)Nc1ccc(C#N)cc1
> 50 µM		N#Cc1ccc(NC(=S)c2cnoc2C2CCCCC2)cc1
> 50 µM		FC(F)(F)c1ccc(NC(=S)c2cnoc2C2CCCCC2)cc1
> 50 µM		CCCCCCc1oncc1C(=S)Nc1ccc(N(C)C)cc1
> 50 µM		CC(C)(C)c1oncc1C(=S)Nc1ccc(OC(F)(F)F)cc1
> 50 µM		CCCCCCc1oncc1C(=S)Nc1ccc(C#N)cc1
	10 µM	C/C(O)=C(/C#N)C(=O)Nc1ccc(C(F)(F)F)cc1

SMILES	IC50 [1]	IC50 [2]
FC(F)(F)Oc1ccc(NC(=S)c2cnoc2C2CC2)cc1	0.8 µM	
